Experimental data taken from US7205433B2, “Crystal of amino acid ester salt and process for producing the same” (Ajinomoto Co., Inc., priority 2002, dated 2007).

Legend:
Type in all cases: physicochemical
[1] = Experimental Example 4: comparison of hygroscopicity by weight gain over time (40 to 46% RH); conditions: 24° C.
Protocol: The L-Ala-OEt HCl salt, L-Ala-OEt MsOH salt, L-Ala-OEt BsOH salt, L-Ala-OEt 4-CBS salt, L-Ala-OEt 4-EBS salt, L-Ala-OEt 2,4-DMBS salt, and L-Ala-OEt 2,5-DMBS salt were measured in an amount of about 0.3 g each, left standing in a thermostatic chamber at a temperature of 24° C. and a humidity of 40 to 46% RH, and the hygroscopicity was compared based on the weight gain with the lapse of time. A part of the crystal of the L-Ala-OEt HCl salt was liquefied in 30 minutes, and the liquefied portion increased thereafter with the lapse of time. After 100 minutes, the whole mass became like a sherbet.

[2] = Experimental Example 5: comparison of hygroscopicity by weight gain over time (60 to 66% RH); conditions: 24 EC
Protocol: The L-Ala-OMe HCl salt, L-Ala-OEt MsOH salt, L-Ala-OEt BsOH salt, L-Ala-OEt 4-CBS salt, L-Ala-OEt 4-EBS salt, L-Ala-OEt 2,4-DMBS salt, and L-Ala-OEt 2,5-DMBS salt were measured in an amount of about 0.3 g each, left standing in a thermostatic chamber at a temperature of 24 EC and a humidity of 60 to 66% RH, and the hygroscopicity was compared based on the weight gain with the lapse of time.

[3] = Experimental Example 7: evaluation of hygroscopicity by weight gain over time (60 to 66% RH); conditions: 24 EC
Protocol: The L-Ala-OMe HCl salt, L-Ala-OMe 4-EBS salt, L-Ala-OMe 2,4-DMBS salt, and L-Ala-OMe 2,5-DMBS salt were measured in an amount of about 0.3 g each, left standing in a thermostatic chamber at temperature of 24 EC and a humidity of 60 to 66% RH, and the hygroscopicity was compared based on the weight gain with the lapse of time. A part of the crystal of the L-Ala-OMe HCl salt was liquefied in 10 minutes, and the entirety became a sherbet in 20 minute. The liquefied portion increased thereafter with the lapse of time. After 80 minutes, the whole was liquefied.

| Compound | weight increase rate (%) ([1]; 0 minutes) | weight increase rate (%) ([1]; 15 minutes) | weight increase rate (%) ([1]; 30 minutes) | weight increase rate (%) ([1]; 45 minutes) | weight increase rate (%) ([1]; 60 minutes) | weight increase rate (%) ([1]; 75 minutes) | weight increase rate (%) ([1]; 90 minutes) | weight increase rate (%) ([1]; 120 minutes) | weight increase rate (%) ([1]; 150 minutes) | weight increase rate (%) ([1]; 180 minutes) | weight increase rate (%) ([2]; 0 minutes) | weight increase rate (%) ([2]; 10 minutes) | weight increase rate (%) ([2]; 20 minutes) | weight increase rate (%) ([2]; 35 minutes) | weight increase rate (%) ([2]; 50 minutes) | weight increase rate (%) ([2]; 65 minutes) | weight increase rate (%) ([2]; 80 minutes) | weight increase rate (%) ([2]; 95 minutes) | weight increase rate (%) ([2]; 110 minutes) | weight increase rate (%) ([2]; 125 minutes) | further results |
| --- | --- | --- | --- | --- | --- | --- | --- | --- | --- | --- | --- | --- | --- | --- | --- | --- | --- | --- | --- | --- | --- |
| L-alanine ethyl ester 4-ethylbenzenesulfonate [L-Ala-OEt 4-EBS salt] | 0.00 | 0.00 | 0.00 | 0.00 | 0.13 | 0.19 | 0.22 | 0.41 | 0.54 | 0.36 | 0.00 | 0.09 | 0.09 | 0.15 | 0.15 | 0.15 | 0.15 | 0.15 | 0.18 | 0.15 | weight increase rate (%) ([2]; 140 minutes): 0.18%; weight increase rate (%) ([2]; 155 minutes): 0.18%; weight increase rate (%) ([2]; 170 minutes): 0.18%; weight increase rate (%) ([2]; 185 minutes): 0.15%; weight increase rate (%) ([2]; 200 minutes): 0.21% |
| L-alanine methyl ester 2,5-dimethylbenzenesulfonate [L-Ala-OMe 2,5-DMBS salt] | – | – | – | – | – | – | – | – | – | – | – | – | – | – | – | – | – | – | – | – | weight increase rate (%) ([3]; 0 min): 0.00%; weight increase rate (%) ([3]; 10 min): 0.06%; weight increase rate (%) ([3]; 20 min): 0.06%; weight increase rate (%) ([3]; 35 min): 0.06%; weight increase rate (%) ([3]; 50 min): 0.03%; weight increase rate (%) ([3]; 65 min): 0.03%; weight increase rate (%) ([3]; 80 min): 0.03%; weight increase rate (%) ([3]; 95 min): 0.00%; weight increase rate (%) ([3]; 110 min): 0.03%; weight increase rate (%) ([3]; 125 min): 0.06%; weight increase rate (%) ([3]; 140 min): 0.00%; weight increase rate (%) ([3]; 155 min): 0.00%; weight increase rate (%) ([3]; 170 min): 0.03%; weight increase rate (%) ([3]; 185 min): 0.03%; weight increase rate (%) ([3]; 200 min): 0.06% |
| L-alanine ethyl ester 2,5-dimethylbenzenesulfonate [L-Ala-OEt 2,5-DMBS salt] | 0.00 | 0.00 | 0.00 | 0.06 | 0.10 | 0.16 | 0.19 | 0.26 | 0.32 | 0.32 | 0.00 | 0.00 | 0.03 | 0.03 | 0.09 | 0.06 | 0.06 | 0.06 | 0.12 | 0.06 | weight increase rate (%) ([2]; 140 minutes): 0.09%; weight increase rate (%) ([2]; 155 minutes): 0.09%; weight increase rate (%) ([2]; 170 minutes): 0.09%; weight increase rate (%) ([2]; 185 minutes): 0.09%; weight increase rate (%) ([2]; 200 minutes): 0.12% |
| CCOC(=O)[C@H](C)N.O=S(=O)(O)c1ccc(Cl)cc1 [L-Ala-OEt 4-CBS salt, L-alanine ethyl ester 4-chlorobenzenesulfonate] | 0.00 | 1.55 | 1.51 | 1.48 | 1.81 | 2.01 | 2.14 | 2.30 | 2.17 | 2.27 | 0.00 | 2.26 | 2.83 | 3.38 | 3.77 | 4.10 | 4.31 | 4.46 | 4.58 | 4.70 | weight increase rate (%) ([2]; 140 minutes): 4.76%; weight increase rate (%) ([2]; 155 minutes): 4.82%; weight increase rate (%) ([2]; 170 minutes): 4.94%; weight increase rate (%) ([2]; 185 minutes): 4.94%; weight increase rate (%) ([2]; 200 minutes): 5.03% |
| L-alanine ethyl ester 2,4-dimethylbenzenesulfonate [L-Ala-OEt 2,4-DMBS salt] | 0.00 | 0.00 | 0.00 | 0.00 | 0.03 | 0.03 | 0.06 | 0.06 | 0.06 | 0.06 | 0.00 | 0.00 | 0.00 | 0.00 | 0.00 | 0.00 | 0.03 | 0.00 | 0.03 | 0.03 | weight increase rate (%) ([2]; 140 minutes): 0.03%; weight increase rate (%) ([2]; 155 minutes): 0.03%; weight increase rate (%) ([2]; 170 minutes): 0.06%; weight increase rate (%) ([2]; 185 minutes): 0.06%; weight increase rate (%) ([2]; 200 minutes): 0.06% |
| CCOC(=O)[C@H](C)N.O=S(=O)(O)c1ccccc1 [L-Ala-OEt BsOH salt, L-alanine ethyl ester benzenesulfonate] | 0.00 | 0.66 | 0.63 | 0.75 | 0.93 | 1.05 | 1.08 | 1.23 | 1.02 | 1.08 | 0.00 | 1.46 | 1.80 | 1.97 | 2.11 | 2.22 | 2.25 | 2.28 | 2.22 | 2.22 | weight increase rate (%) ([2]; 140 minutes): 2.22%; weight increase rate (%) ([2]; 155 minutes): 2.22%; weight increase rate (%) ([2]; 170 minutes): 2.28%; weight increase rate (%) ([2]; 185 minutes): 2.25%; weight increase rate (%) ([2]; 200 minutes): 2.25% |
